Source: ChEMBL document CHEMBL5233250, “Factor XIIIa inhibitors as potential novel drugs for venous thromboembolism” (Eur J Med Chem, 2020)
Numbered stars: 1 amine (or outer) side, 2 acyl side, 3 side chain; on linkers, the order of the positions; unused ones are H or OH. Square brackets hold non-standard residues; d marks the D form. Peptide text beside a SMILES is read from it. * marks the point of attachment. ξ: configuration not given here. X2 = COC(=O)/C=C/CC[C@H](N[*:1])C(=O)[*:2]; Ile(3ξ) = CCC(C)[C@H](N)C(=O)O; X4 = CCOC(=O)c1nc(C(=O)*)cs1; X3 = O=C(c1nc2ccccc2[nH]1)*; Nle = CCCC[C@H](N)C(=O)O; X1 = Cc1nc(C(=O)*)cs1

What was measured:
[1] = target: T1, Coagulation factor XIII A chain (Homo sapiens, UniProt P00488); test: Inhibition of human coagulation factor XIIIa assessed as inhibition of factor 13a mediated crosslinking of fibronectin-collagen incubated for 2 hrs by SDS-PAGE analysis
T1 sequence (P00488 whole entry): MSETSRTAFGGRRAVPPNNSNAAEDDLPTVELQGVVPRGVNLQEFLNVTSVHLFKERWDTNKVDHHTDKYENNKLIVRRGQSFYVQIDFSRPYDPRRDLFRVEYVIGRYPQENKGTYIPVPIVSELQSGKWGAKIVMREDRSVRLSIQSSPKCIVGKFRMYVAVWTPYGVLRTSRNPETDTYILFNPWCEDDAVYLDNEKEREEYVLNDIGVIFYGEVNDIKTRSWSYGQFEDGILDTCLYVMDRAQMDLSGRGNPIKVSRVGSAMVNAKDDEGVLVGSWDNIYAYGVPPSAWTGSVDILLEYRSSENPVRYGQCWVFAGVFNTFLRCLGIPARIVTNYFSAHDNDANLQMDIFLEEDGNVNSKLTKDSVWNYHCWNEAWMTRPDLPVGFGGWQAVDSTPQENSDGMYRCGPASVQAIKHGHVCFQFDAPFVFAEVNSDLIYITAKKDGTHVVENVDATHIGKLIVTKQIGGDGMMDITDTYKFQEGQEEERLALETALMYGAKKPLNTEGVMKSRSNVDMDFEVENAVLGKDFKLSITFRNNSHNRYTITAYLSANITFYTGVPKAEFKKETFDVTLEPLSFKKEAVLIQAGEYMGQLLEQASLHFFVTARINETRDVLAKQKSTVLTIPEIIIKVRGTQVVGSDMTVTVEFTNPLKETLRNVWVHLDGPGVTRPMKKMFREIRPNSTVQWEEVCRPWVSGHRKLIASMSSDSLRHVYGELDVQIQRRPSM

[2] = Inhibition of transglutaminase in guinea pig liver assessed as inhibition constant using Z-Gln-Gly as substrate by Michaelis-Menten analysis; assay type: tissue-based, Cavia porcellus
[3] = target: T2, Coagulation factor XIII A chain (Bos taurus) (UniProt P12260); test: Inhibition of bovine plasma coagulation factor XIIIa assessed as threshold concentration by measuring insoluble fibrin per total fibrin incubated for 30 mins in presence of bovine fibrin by biuret method; assay type: cell-free
T2 sequence (whole entry): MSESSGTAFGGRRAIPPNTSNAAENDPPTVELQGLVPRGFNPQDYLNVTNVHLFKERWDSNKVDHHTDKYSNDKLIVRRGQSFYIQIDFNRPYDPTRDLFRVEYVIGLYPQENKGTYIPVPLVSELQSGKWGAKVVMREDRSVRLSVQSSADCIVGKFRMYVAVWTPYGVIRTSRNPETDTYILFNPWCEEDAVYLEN

[4] = Ratio of rate constant for human plasma coagulation factor XIIIa to rate constant for Glutathione (unknown origin)
[5] = target: T3, Coagulation factor XIII A chain (Homo sapiens) (UniProt P00488); test: Binding affinity to human plasma coagulation factor XIIIa assessed as rate constant in presence of GSH by DTNB based UV-fluorescence assay; assay type: cell-free
T3 sequence (whole entry): T1 sequence (P00488 whole entry)

[6] = target: T1, Coagulation factor XIII A chain; test: Inhibition of human plasma coagulation factor XIIIa by fluorescence spectrophotometeric assay; assay type: cell-free
[7] = target: T1, Coagulation factor XIII A chain; test: Inhibition of human recombinant coagulation factor XIIIa
[8] = target: T3, Coagulation factor XIII A chain (Homo sapiens); test: Inhibition of human coagulation factor XIIIa assessed as maximal inhibition of factor 13a mediated fibrin polymerization at 5 to 500 uM incubated for 24 hrs by SDS-PAGE analysis; details: dose 5-500 µM
[9] = Selectivity index, ratio of IC50 for inhibition of human coagulation factor XIIIa to IC50 for inhibition of papain (unknown origin)
Homo sapiens [10] = species on record: Homo sapiens; test: Selectivity index, ratio of IC50 for inhibition of human coagulation factor XIIIa to IC50 for inhibition of human alpha-thrombin
[11] = target: T3, Coagulation factor XIII A chain (Homo sapiens); test: Inhibition of human coagulation factor XIIIa assessed as enzyme residual activity at 100 uM in presence of polybrene by Spectrofluorometric assay
[12] = target: T3, Coagulation factor XIII A chain (Homo sapiens); test: Inhibition of human coagulation factor XIIIa assessed as maximal efficacy upto 20 nM
Homo sapiens [13] = species on record: Homo sapiens; test: Selectivity index, ratio of IC50 for inhibition of human coagulation factor XIIIa to IC50 for inhibition of human Factor Xa
[14] = target: T4, Protein-glutamine gamma-glutamyltransferase (Homo sapiens, UniProt P21980); test: Inhibition of tissue transglutaminase (unknown origin); assay type: tissue-based
T4 sequence (P21980 whole entry): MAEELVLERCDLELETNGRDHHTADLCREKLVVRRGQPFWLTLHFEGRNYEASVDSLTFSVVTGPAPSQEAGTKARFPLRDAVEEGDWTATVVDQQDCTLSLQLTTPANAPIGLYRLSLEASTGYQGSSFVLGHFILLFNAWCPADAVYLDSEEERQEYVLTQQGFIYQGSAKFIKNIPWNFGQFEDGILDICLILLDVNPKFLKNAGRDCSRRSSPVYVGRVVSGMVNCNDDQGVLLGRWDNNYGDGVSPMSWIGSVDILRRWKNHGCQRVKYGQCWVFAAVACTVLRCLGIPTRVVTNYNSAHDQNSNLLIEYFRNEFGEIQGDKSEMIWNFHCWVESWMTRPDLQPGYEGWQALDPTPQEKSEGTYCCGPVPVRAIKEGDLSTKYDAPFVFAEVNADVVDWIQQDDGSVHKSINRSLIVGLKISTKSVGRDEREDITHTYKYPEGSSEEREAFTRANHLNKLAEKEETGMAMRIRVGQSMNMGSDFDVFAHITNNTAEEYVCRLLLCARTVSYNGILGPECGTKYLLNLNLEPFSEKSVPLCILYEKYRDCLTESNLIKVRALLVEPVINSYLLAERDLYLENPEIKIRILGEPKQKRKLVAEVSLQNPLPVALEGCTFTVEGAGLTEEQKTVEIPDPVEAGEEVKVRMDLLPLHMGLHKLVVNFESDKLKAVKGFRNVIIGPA

Canis familiaris [15] = test: Antithrombotic activity in Mongrel dog model of electrically-induced coronary artery thrombosis assessed as reduction in residual thrombus mass at 0.1 mg/kg,iv pre-administered for 15 mins followed by electric impulse stimulation and t-PA and measured after 90 mins; assay type: functional, Canis lupus familiaris; details: time 105 min, 1.75 h
Canis familiaris [16] = test: Antithrombotic activity in Mongrel dog model of electrically-induced coronary artery thrombosis assessed as time to reperfusion at 0.1 mg/kg,iv pre-administered for 15 mins followed by electric impulse stimulation and t-PA and measured after 90 mins; assay type: functional, Canis lupus familiaris; details: time 105 min, 1.75 h
Canis familiaris [17] = test: Antithrombotic activity in Mongrel dog model of electrically-induced coronary artery thrombosis assessed as time to occlusion at 0.1 mg/kg,iv pre-administered for 15 mins followed by electric impulse stimulation and t-PA and measured after 90 mins; assay type: functional, Canis lupus familiaris; details: time 105 min, 1.75 h
Canis familiaris [18] = test: Antithrombotic activity in Mongrel dog model of electrically-induced coronary artery thrombosis assessed as re-occlusion rate at 0.1 mg/kg,iv pre-administered for 15 mins followed by electric impulse stimulation and t-PA and measured after 90 mins; assay type: functional, Canis lupus familiaris; details: time 105 min, 1.75 h
[19] = Plasma concentration in New Zealand White rabbit at iv dosed upto 8 hrs by HPLC method; assay type: ADME, organism-based, Oryctolagus cuniculus
[20] = Total clearance in New Zealand White rabbit at iv dosed upto 8 hrs by HPLC method; assay type: ADME, organism-based, Oryctolagus cuniculus; details: in vivo
[21] = Half life in New Zealand White rabbit at iv dosed upto 8 hrs by HPLC method; assay type: ADME, organism-based, Oryctolagus cuniculus; details: in vivo
[22] = target: T1, Coagulation factor XIII A chain; test: Inhibition of human plasma coagulation factor XIIIa; assay type: cell-free
[23] = target: T1, Coagulation factor XIII A chain; test: Inhibition of human coagulation factor XIIIa

SMILES: NCCCCNCCCN [SPERMIDINE]
- IC50 [1]: 100000 nM

SMILES: NCCCCCNC(=S)Nc1ccccc1
- Ki [2]: 49000 nM

SMILES: Cc1ccc(S(=O)(=O)NCCCCNC(=O)CCl)cc1
- Activity [3]: 15 µg/mL

SMILES: NC(=O)CI
- Ratio [4]: 5 10^3No_unit
- K [5]: 0.8 10^4/M/s

SMILES: O=C(O)CCCCCCCc1cc1=O
- IC50 [6]: 610 nM

SMILES: CC(=O)CSc1n(C)cc[n+]1C
- Ratio [4]: 1.9 10^6No_unit
- K [5]: 0.35 10^4/M/s

SMILES: O=C(O)CCCCCCCCCCc1cc1=O
- IC50 [6]: 310 nM

SMILES: O=C(CCCCCCCc1cc1=O)NCCc1ccccc1
- IC50 [6]: 26 nM

SMILES: CCCC[C@H](NC(=O)[C@H](CC/C=C/C(=O)OC)NC(=O)c1csc(C)n1)C(=O)N[C@H](C(=O)N[C@@H](CC(C)C)C(=O)N1CCC[C@H]1C(=O)N[C@@H](Cc1c[nH]c2ccccc12)C(N)=O)C(C)CC (stereo partly drawn) (X1-[X2][Nle][Ile(3ξ)]LPW-NH2)
- IC50 [7]: 139 nM

SMILES: O=C(O)CCCCCc1cc1=O
- IC50 [6]: 1900 nM

SMILES: O=c1c(OS(=O)(=O)O)c(-c2ccc(OS(=O)(=O)O)c(OS(=O)(=O)O)c2)oc2cc(OS(=O)(=O)O)cc(OCCOc3cc(-c4oc5cc(OS(=O)(=O)O)cc(OCCOc6cc(OS(=O)(=O)O)cc7oc(-c8ccc(OS(=O)(=O)O)c(OS(=O)(=O)O)c8)c(OS(=O)(=O)O)c(=O)c67)c5c(=O)c4OS(=O)(=O)O)ccc3OS(=O)(=O)O)c12
- Efficacy [8]: 100%
- Ratio IC50 [9]: 27
- Ratio IC50 (Homo sapiens [10]): 26
- Activity [11]: 85%
- Efficacy [12]: 98%
- Ratio IC50 (Homo sapiens [13]): 9

SMILES: CCOC(=O)c1nc(C(=O)N[C@@H](CC/C=C/C(=O)OC)C(=O)N[C@@H](CC(C)C)C(=O)N[C@H](C(=O)N[C@@H](CC(C)C)C(=O)N2CCC[C@H]2C(=O)N[C@@H](Cc2c[nH]c3ccccc23)C(=O)N2CCC[C@H]2C(N)=O)C(C)CC)cs1 (stereo partly drawn) (X4-[X2]L[Ile(3ξ)]LPWP-NH2)
- IC50 [7]: 29 nM

SMILES: Cc1c(C)[n+](C)c(SCC(=O)CSc2nnnn2C)n1C
- Ratio [4]: 4.1 10^6No_unit
- K [5]: 4.9 10^4/M/s

SMILES: Cc1ccc(C(=O)NCCCCCC(=O)CCl)cc1
- Activity [3]: 0.8 µg/mL

SMILES: Cc1ccc(S(=O)(=O)NCCCCCCCCCCC(=O)CCl)cc1
- Activity [3]: 50 µg/mL

SMILES: C[C@@H]1CCC/C=C\C(=O)Cc2cc(O)cc(O)c2C(=O)O1
- IC50 [14]: 3100 nM

SMILES: CC(=O)CSc1n[n+]2c(C)csc2s1
- Activity (Canis familiaris [15]): 1.7 mg
- Time (Canis familiaris [16]): 16.4 min
- Time (Canis familiaris [17]): 44.4 min
- Activity (Canis familiaris [18]): 75%

SMILES: Cc1ccc(S(=O)(=O)NCCCCOC(=O)CCl)cc1
- Activity [3]: 40 µg/mL

SMILES: CCC(C)[C@H](NC(=O)[C@H](CC(C)C)NC(=O)[C@H](CC/C=C/C(=O)OC)NC(=O)c1nc2ccccc2[nH]1)C(=O)N[C@@H](CC(C)C)C(=O)N1CCC[C@H]1C(=O)N[C@@H](Cc1c[nH]c2ccccc12)C(=O)N1CCC[C@H]1C(N)=O (stereo partly drawn) (X3-[X2]L[Ile(3ξ)]LPWP-NH2)
- IC50 [7]: 102 nM

SMILES: CC(=O)CSc1n(C)c(C)c(C)[n+]1C
- Ratio [4]: 3.9 10^4No_unit
- K [5]: 6.3 10^4/M/s

SMILES: NCCCNCCCCNCCCN [SPERMINE]
- IC50 [1]: 100000 nM

SMILES: Cc1ccc(S(=O)(=O)NCCCCCC(=O)CCl)cc1
- Activity [3]: 0.05 µg/mL

SMILES: Cc1ccc(S(=O)(=O)N(C)CCCCCC(=O)CCl)cc1
- Activity [3]: 0.1 µg/mL

SMILES: O=[N+]([O-])c1ccccc1S(=O)(=O)NCCCCCCNc1nsc2nccn12
- concentration at 8 h [19]: 80 µM
- clearance [20]: > 63.3 mL/min/kg
- half-life [21]: 7.8 min

SMILES: O=C(CCl)CCCCCNS(=O)(=O)c1ccc(Cl)cc1
- Activity [3]: 0.2 µg/mL

SMILES: CC(=O)CSc1n(C)c(-c2ccccc2)c(-c2ccccc2)[n+]1C
- IC50 [22]: 350 nM

SMILES: O=C1C(OS(=O)(=O)O)=C(c2ccc(OS(=O)(=O)O)c(OCCCOc3cc(OS(=O)(=O)O)cc4oc(-c5ccc(OS(=O)(=O)O)c(OS(=O)(=O)O)c5)c(OS(=O)(=O)O)c(=O)c34)c2)OC2C=C(OS(=O)(=O)O)C=C(OCCCOc3cc(OS(=O)(=O)O)cc4oc(-c5ccc(OS(=O)(=O)O)c(OS(=O)(=O)O)c5)c(OS(=O)(=O)O)c(=O)c34)C12 (stereo not drawn)
- Efficacy [12]: 93%
- IC50 [23]: 118000 nM

SMILES: CC(=O)NCCc1ccc(O)cc1
- IC50 [23]: 200 nM
